Measurements as given in patent US20100226966A1, “Method for transdermal controlled release drug delivery” (priority 2009, published 2010).

Columns and labels:
Water solubility of PTH = format: physicochemical; settings: at pH 5
Excerpt: Referring now to FIG. 10, there is shown a superposition of the mole ratios for acetic acid and the neutral form of hPTH(1-34). […] At pH 5, negligible amounts of PTH are present as PTH zero net charge (PTH 0). The PTH is also highly soluble in water at concentrations in excess of 20%. During drying and subsequent storage, the free acetic acid will evaporate inherently resulting in formation of the water insoluble PTH 0. Subsequent reconstitution in water will not allow total solubilization of PTH. Accordingly, the use of a low volatility counterion provides a solid soluble formulation of PTH as long as the pH is maintained at least 2.5 pH units, preferably 3 pH units, below the pI of PTH. Preferably, this can be achieved by providing at least about two low volatility counterions to each molecule of PTH.

urinary cAMP = test: Urinary cAMP excretion after transdermal vs subcutaneous PTH delivery; format: in vivo, human (healthy, young females); settings: FIG. 15
Description: (§1) In this example, transdermal delivery of a PTH-based agent using a coated microprojection member was compared to conventional, subcutaneous delivery of teriparatide PTH (Forteo™). A dose-finding study was conducted with […], young females that received two treatments, separated by at least five days, according to randomly assigned sequence of 20 μg subcutaneous delivery of Forteo™ and 30 μg transdermal delivery of a PTH-based agent by coated microprojection. Bioavailability of transdermally delivered PTH was determined in 20 healthy, young females by administering two treatments, separated by at least five day, according to randomly assigned sequence of 40 μg subcutaneous delivery of Forteo™ and 30 μg transdermal delivery of a PTH-based agent by coated microprojection.
FIG. 12 further reflects a preferred pulsatile concentration profile of the PTH agent, i.e., rapid on-set and rapid off-set after reaching Cmax.

[1] = Clinical dose-finding and bioavailability study, transdermal coated microprojection vs subcutaneous Forteo, PTH plasma levels and safety; format: in vivo, human (healthy, young females)
Description: as §1
In the dose-finding study, two participants dropped out, eleven subjects participated and eight generated usable data. It was determined that three subjects had measurable PTH plasma levels following subcutaneous injection and eight subjects had measurable PTH plasma levels following transdermal delivery.

[2] = Pharmacokinetics of hPTH (1-34) after IV, SC and coated microprojection array administration in hairless guinea pig; format: in vivo; settings: HGP; for dose absorbed/delivered: calculated against IV AUC

With `CC[C@H](C)[C@H](NC(=O)[C@H](CCC(=O)O)NC(=O)[C@H](CO)NC(=O)[C@@H](NC(=O)[C@@H](N)CO)C(C)C)C(=O)N[C@@H](CCC(N)=O)C(=O)N[C@@H](CC(C)C)C(=O)N[C@@H](CCSC)C(=O)N[C@@H](Cc1cnc[nH]1)C(=O)N[C@@H](CC(N)=O)C(=O)N[C@@H](CC(C)C)C(=O)NCC(=O)N[C@@H](CCCCN)C(=O)N[C@@H](Cc1cnc[nH]1)C(=O)N[C@@H](CC(C)C)C(=O)N[C@@H](CC(N)=O)C(=O)N[C@@H](CO)C(=O)N[C@@H](CCSC)C(=O)N[C@@H](CCC(=O)O)C(=O)N[C@@H](CCCN=C(N)N)C(=O)N[C@H](C(=O)N[C@@H](CCC(=O)O)C(=O)N[C@@H](Cc1c[nH]c2ccccc12)C(=O)N[C@@H](CC(C)C)C(=O)N[C@@H](CCCN=C(N)N)C(=O)N[C@@H](CCCCN)C(=O)N[C@@H](CCCCN)C(=O)N[C@@H](CC(C)C)C(=O)N[C@@H](CCC(N)=O)C(=O)N[C@@H](CC(=O)O)C(=O)N[C@H](C(=O)N[C@@H](Cc1cnc[nH]1)C(=O)N[C@@H](CC(N)=O)C(=O)N[C@@H](Cc1ccccc1)C(=O)O)C(C)C)C(C)C` [hPTH (1-34)] the “solubility in water (concentration)” value (Water solubility of PTH) was greater than 20%, the “biological activity as evidenced by urinary cAMP excretion” value (urinary cAMP) was “comparable to that following subcutaneous delivery” and the “subjects with measurable PTH plasma levels” value (“subjects” below) ([1]; bioavailability study, subcutaneous delivery 40 μg, 20 subjects completed) was 15 subjects. For the same compound, the “subjects” value ([1]; bioavailability study, transdermal delivery 30 μg, 20 subjects completed) was 20 subjects, the “subjects” value ([1]; dose-finding study, subcutaneous injection 20 μg, eight subjects with usable data) was “three” and the “subjects” value ([1]; dose-finding study, transdermal delivery 30 μg, eight subjects with usable data) was “eight”. For the same compound, the “Fraction dose absorbed/delivered (%)” value ([2]; IV, 22.5 μg) was 100%, the “dose absorbed/delivered” value ([2]; SC, 19.5 μg) was 8.2 ± 2.9 µg and the Cmax ([2]; hairless, guinea pig, plasma, 22.5 ug, IV) was 11.2 ng/mL. The “dose absorbed/delivered” value ([2]; microprojection array, 40.0 μg) was 6.6 ± 1.8 µg.
